# Measured values taken from US20150065575A1, “S100A8/A9 as a Diagnostic Marker and a Therapeutic Target” (Sloan-Kettering Institute for Cancer Research, priority 2012, published 2015).
# Tests used:
# [1] = system: LM2 and CN34LM1 lung metastatic human breast cancer cell lines; assay: Preclinical trial of AC chemotherapy and CXCR2 antagonist in orthotopic lung metastatic breast cancer xenografts; type: in vivo, mice
# Method: Data represent average expression±SEM. n=10-13 mice per group. P values were determined by Student's t-test. *p=0.02, **p=0.007.
# Data are average foci per field of view (FOV)±SEM. n=5-10 mice per group. Whiskers represent minimum and maximum values. P values were determined by two-tailed Wilcoxon rank-sum test.
# Tumor vessel characteristics and lung metastatic foci size and number were quantified using Metamorph software (Molecular Devices) as previously described (DeNardo et al., 2009; Gupta et al., 2007). In brief, 10 random images at 20× magnification were taken per tumor section stained with CD34, MECA32 or Von Willebrand factor by immunohistochemistry. Images were thresholded, stained area was calculated by counting objects per field and vessel characteristics were analyzed using Metamorph measurement module. For quantitating lung metastatic foci area and number, 8-12 random images at 20× magnification were taken per lung section stained with vimentin by immunohistochemistry. A minimum of 5 sections was analyzed per animal across different depths of the tissue. For quantitation, images were thresholded and number of metastatic foci determined. Metastatic foci was considered if they contained more than 5 cells. Foci were counted and analyzed using Metamorph measurement module. […]
# [2] = system: PMN; conditions: similar potencies for both; cited from earlier work
smiles,measurement,setting,value
N#Cc1ccc(NC(=O)Nc2ccccc2Br)c2n[nH]nc12 [CXCR2 inhibitor],lung metastatic burden,[1]; CXCR2 inhibitor combined with AC chemotherapy,markedly reduced
same,S100A9 expressing cells (immunostaining),[1]; CXCR2 inhibitor/chemotherapy treatment,significant reduction
C[C@@H](C(N)=O)c1ccc(OS(=O)(=O)C(F)(F)F)cc1 [4-[(1R)-2-amino-1-methyl-2-oxoethyl]phenyl trifluoromethane sulfonate],CXCL8- and CXCL1-mediated PMN chemotaxis,[2],inhibit
